Measurements reported in ChEMBL document CHEMBL3639378, “Morpholinone compounds as factor IXA inhibitors” (2015).

Target: Coagulation factor IX (Homo sapiens, UniProt P00740)
Assay: Test substances dissolved in buffer A (50 mM α,α,α-tris (hydroxymethyl)methylamine (Tris), 100 mM NaCl, 5 mM CaCl2, 15% (v/v) ethylene glycol, pH 8.0) were mixed with factor IXa (2.0 μg/ml final concentration). The enzyme reaction was started by addition of SPECTROFLUOR FIXa (100 μM final concentration).

Chain of Coagulation factor IX (P00740 47-191 limits assumed): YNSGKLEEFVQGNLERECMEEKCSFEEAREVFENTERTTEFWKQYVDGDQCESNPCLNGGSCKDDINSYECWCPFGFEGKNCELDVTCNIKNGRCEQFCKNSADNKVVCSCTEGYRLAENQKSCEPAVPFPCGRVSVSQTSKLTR
Chain of Coagulation factor IX (P00740 227-461 limits assumed): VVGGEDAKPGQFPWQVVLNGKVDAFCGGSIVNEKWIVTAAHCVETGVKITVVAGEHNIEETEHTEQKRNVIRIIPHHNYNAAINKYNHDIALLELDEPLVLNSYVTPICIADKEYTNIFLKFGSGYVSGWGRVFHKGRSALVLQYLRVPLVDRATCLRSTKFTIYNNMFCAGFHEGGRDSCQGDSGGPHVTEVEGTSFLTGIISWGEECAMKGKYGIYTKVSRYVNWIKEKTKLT

IC50: 130 nM
Structure (SMILES): Cc1ccc(CN2CCO[C@H]([C@@H](O)C(=O)Nc3ccc(C(=N)N)cc3)C2=O)cc1
